Experimental data reported in publication PMC9266561, “1,3-Benzodioxole Derivatives Improve the Anti-Tumor Efficiency of Arsenicals” (International Journal of Molecular Sciences, 2022).
pIC50: −log10 of the molar value. Where two headings read alike, the source gives them in different places.

What was measured:
4T1 tumors = experiment: 4T1 tumor syngeneic model in Balb/C mice; format: in vivo; settings: for average tumor weight reduced by: two administrations, day 26
Method: To confirm the bioactivity of MAZ2 in vivo, the tumor growth inhibition in 4T1 tumor syngeneic models in Balb/C mice was investigated (Figure 4A). When tumors grew to about 100 mm^3, the mice were divided into three groups; namely, the control, 1 mg/kg of MAZ2, and 1.5 mg/kg of MAZ2. Either a vehicle or the MAZ2 was injected intraperitoneally once a week. […] Therefore, the experiments were terminated at day 26 after two administrations.
(§1) The mice (BALB/c, female, 5 weeks), purchased from Hubei Provincial Laboratory Animal Public Service Center, were injected with 0.1 mL of 4T1 cells (1 × 10^6/mL) in the right haunch. After the tumor grew to approximately 100 mm^3, the mice were randomly divided into three groups: control (PBS:DMSO = 8:2), 1 mg/kg, and 1.5 mg/kg. The MAZ2 was administrated once a week (i.p.) for two doses. The 1.5 mg/kg group had six mice, and the tumors of two mice disappeared after 8 days; that is, after one administration, the two tumors were almost eliminated. The body weight and tumor volume were measured every two days.
(§2) Fresh tumors and organs were minced quickly in an ice bath and homogenized in a pre-cooled Dounce Tissue Grinder (WHEATON). The homogenate was dissolved by RIPA with 0.1% PMSF. The protein concentration was determined by a BCA Protein Assay Kit (Beyotime, Shanghai, China). A total of 20–40 μg of proteins were separated by 8–12% SDS-PAGE according to the molecular weight of certain proteins, followed by being transferred onto the polyvinylidene difluoride membrane. Then, the membrane was blocked with 5% fat-free milk for 2 h, followed by incubation with primary antibodies and HRP-conjugated secondary antibodies. Then, the images were snapped by QuickChemi5100.

[1] = rat, in vivo
NB4 = experiment: cells; format: cell-based
4T1 cells = experiment: ROS level by DCFH-DA in 4T1 cells; format: cell-based
Method: The 4T1 cells treated with the MAZ2 of 0.8 and 1.6 µM were seeded in 6-well plates for 3, 6, 9, 12, and 24 h. Then, the medium was removed and fresh medium with DCFH-DA (0.2 µM) was added, followed by 30 min of incubation. Next, cells were collected and washed twice with PBS. Data were collected by a C6 flow cytometer (BD Biosciences, Franklin Lakes, New Jersey, USA).
The 4T1 cells treated with the MAZ2 of 0.8 and 1.6 µM were cultured in 1 cm dishes specially designed for confocal tests. Nine hours later, DCFH-DA was added for confocal tests.

HeLa = experiment: cells; format: cell-based, human
Molm-13 cells = experiment: Apoptosis assay by flow cytometry; format: cell-based; settings: 0.2, 0.3 and 0.4 µM, 24 h
Method: The Molm-13 cells were cultured with 0.2, 0.3, and 0.4 µM MAZ2 for 24 h; then, the cells were collected and stained using annixin V-FITC and PE for 30 min. The separation lines were determined by single staining.

[2] = system: 4T1 cells with TrxR knocked down; experiment: MTT assay of 4T1 cells with TrxR siRNA knock-down; format: cell-based
Molm-13 and 4T1 cells = experiment: MDA content (lipid peroxidation); format: cell-based; settings: 6 and 12 h
Method: The Molm-13 and 4T1 cells were cultured in 6-well plates for 6 and 12 h, followed by an MDA test according to the manufacturer’s instructions.

COS-7 = experiment: cells; format: cell-based, African green monkey
GSH = GSH content; format: cell-based
[3] = Side effects in 4T1 tumor-bearing mice; format: in vivo
Method: as §1
Blood samples for the blood cell content tests were collected from the eye socket veins of the mice.
as §2
The 5 organs were formalin-fixed for 24 h immediately after the mice were sacrificed, and decalcified for 3.5 h, paraffin-embedded, cut, dewaxed, and hydrated. Some samples were stained with H&E. The pictures in the results were magnified by 400× and the scale bar was 50 µm.

TrxR = experiment: Cellular TrxR activity of 4T1 cells; format: cell-based; settings: 12 h incubation
Molm-13 = experiment: cells; format: cell-based
cancer cells = experiment: MTT assay, cancer cell lines taken together; format: cell-based; settings: all cancer cell lines
Method: The bioactivity of all the synthetic compounds was evaluated by a MTT assay (Table 1, Tables S1 and S2) against two leukemia cell lines, Molm-13 and NB4; two solid tumor cell lines, HeLa (human cervix cell line) and 4T1 (breast cancer cell line); and two normal cell lines, COS-7 (African green monkey kidney cell line) and rat PBMC (peripheral blood mononuclear cell line).
Cells were cultured in 96-well plates overnight, followed by adding 80 μL of a related medium containing compounds of different concentrations and dissolved in DMSO for 24 h or 48 h. Then, 40 μL of MTT (2.5 mg/mL) was added and the cells were incubated for another 4 h. The cells were then dissolved in 100 μL of 10% SDS solution or DMSO to release and dissolve the purple MTT products, followed by absorbance detection (BioTek, Winooski, VT, USA).

[4] = system: Trx system (TrxR1, Trx1, TrxR2, Trx2); experiment: Transcription of Trx system genes in 4T1 cells; format: cell-based; settings: 24 h, 1IC50 and 1.5IC50
Excerpt: See the methods in previous work.

4T1 = experiment: cells; format: cell-based
[5] = Arsenic content of viscera and tumor by ICP-MS; settings: mouse, in vivo
PBMC = experiment: cells; format: cell-based, rat

For `COc1ccc(C(=O)Nc2ccc([As]3SCCCS3)cc2)cc1` [MAZ2], the “average tumor weight reduced by” value (4T1 tumors; 1 mg/kg i.p. once a week) was 30%, the “tumor growth (tumor volume)” value (4T1 tumors; 1 mg/kg or 1.5 mg/kg i.p. once a week) was “completely reverse the growth of tumors and gradually eliminate tumors” and the tumors eliminated (4T1 tumors; 1.5 mg/kg i.p. once a week, after two weeks) was “two tumors in the mice belonging to the 1.5 mg/kg MAZ2 group were eliminated”. The “average tumor weight reduced by” value (4T1 tumors; 1.5 mg/kg i.p. once a week) was 15%, the “TrxR and Trx content of tumors by western blot” value (4T1 tumors; tumors of treated mice) was “reduced the TrxR1 content slightly and reduced the Trx1 content by a large amount” and the “blood arsenic content over time” value [1] was “decreased slowly and remained at high levels even after 2 days”. For the same molecule, the pIC50 (NB4; read-out: IC50 NB4 24 h) was 6.40, the pIC50 (NB4; read-out: IC50 NB4 48 h) was 6.52 and the “incubation time at which the ROS peak was reached” value (4T1 cells) was 9 h. The ROS level (4T1 cells; 0.8 and 1.6 µM) was “rose sharply in a dosage-dependent manner”, the pIC50 (HeLa; read-out: IC50 HeLa 24 h) was 6.40 and the pIC50 (HeLa; read-out: IC50 HeLa 48 h) was 6.52. The apoptosis induction (Molm-13 cells) was “induced apoptosis in a dosage-dependent manner”, the “change of IC50 value after TrxR was knocked down” value [2] was 5.5 fold and the MDA content (Molm-13 and 4T1 cells) was “increased acutely and dosage-dependently”. The pIC50 (COS-7; read-out: IC50 COS-7 24 h) was 5.28, the pIC50 (COS-7; read-out: IC50 COS-7 48 h) was 5.48 and the “influence on the GSH content” value (GSH) was “very little influence”. For the same molecule, the “body weight of the mice” value ([3]; 1 and 1.5 mg/kg i.p. once a week) was “no obvious impact on the body weight”, the “blood cell counts (WBC, NEUT, LYMPH, MONO)” value ([3]; tumor-bearing mice versus normal mice) was “lowered the counts of blood cells and reversed abnormalities in the hematological system” and the “H&E staining of heart, liver, spleen, lungs, kidneys” value ([3]; two MAZ2-administered groups) was “showed healthy organs”. The “TrxR content of the liver and spleen” value ([3]; western blot) was “no changes”, the “TrxR activity of the 4T1 cells” value (TrxR) was “sharply reduced activity” and the pIC50 (Molm-13; read-out: IC50 Molm 24 h) was 6.70. The pIC50 (Molm-13; read-out: IC50 Molm 48 h) was 7.00, the pIC50 (cancer cells) was over 6.00 and the “transcription of the Trx system” value [4] was “decreased the transcription of the Trx system”. For the same molecule, the pIC50 (4T1; read-out: IC50 4T1 24 h) was 6.10, the pIC50 (4T1; read-out: IC50 4T1 48 h) was 6.40 and the “arsenic content of tumor and viscera” value [5] was “gathered in the tumor instead of the viscera”. For the same molecule, the pIC50 (PBMC; read-out: IC50 PBMC 24 h) was 5.12 and the pIC50 (PBMC; read-out: IC50 PBMC 48 h) was 5.16.
